# In patent publication US20250340516A1, “Isoquinolinones as Modulators of POLRMT” (Pretzel Therapeutics, Inc., priority 2024, published 2025):
# Biological target: POLRMT (Homo sapiens (Human), UniProt O00411)
# Assay: homogeneous TR-FRET assay of POLRMT inhibition (mitochondrial transcription, 407 bp RNA product)
# Format: biochemical
# Settings: 7.5 nM POLRMT, 15 nM TFB2M, 30 nM TFAM, 0.5 nM DNA template, 500 μM NTPs, 37° C., 60 minutes, * = aggregation of data sets, read-out: IC50 values for isoquinolinone compounds
# Description: The inhibitory activity of the compounds of the present invention against POLRMT were determined by assays based on Bergbrede, T., et al., “An adaptable high-throughput technology enabling the identification of specific transcription modulators,” SLAC Discov., 22, 378-386 (2017).
# The ability of some compounds of the present invention to inhibit POLRMT were determined in a homogeneous TR-FRET Assay using high-throughput screening in a 384-well plate format. This method is used to monitor the activity of mitochondrial transcription through measurement of its product, a 407 bp long RNA transcript. Detection of the product is facilitated by hybridization of two DNA-oligonucleotide probes to specific and adjacent sequences within the RNA product sequence. Upon annealing of the probes, two fluorophores are coupled directly to an acceptor nucleotide probe (ATTO647, 5′), or introduced via a coupled streptavidin with a biotinylated donor nucleotide probe (Europium cryptate) that is brought into sufficient proximity to serve as a fluorescence-donor-acceptor pair. Thus, a FRET signal at 665 nm is generated upon excitation at 340 nm.
# Proteins used as transcription factors (POLRMT: NP_005026.3, TFAM: NP_003192.1, TFB2M: NP_071761.1) are diluted from their stocks to working concentrations of 1 μM, 20 μM and 4 μM respectively, in a dilution buffer containing 20 mM Tris-HCl (pH 8.0), 200 mM NaCl, 10% (v/v) glycerol, 1 mM Dithiothreitol (DTT), 0.5 mM EDTA.
# DNA template is a pUC18 plasmid with the mitochondrial light strand promotor sequence (1-477) cloned between HindIII and BamHI sites. The DNA template is restriction linearized proximal to the promotor 3′-end (pUC-LSP).
# The reaction mixture (10 uL) containing 7.5 nM POLRMT, 15 nM of TFB2M, 30 nM of TFAM, 0.5 nM of DNA template and 500 μM nucleotide triphosphate mix (NTPs) in a reaction buffer (containing 10 mM Tris-HCl (pH 7.5), 10 mM MgCl2, 40 mM NaCl, 10 mM DTT, 0.005% (w/v) Tween-20, 160 units/ml Rnase inhibitor and 0.1 mg/mL BSA) are dispensed to compounds in microplates, using a Thermo Multidrop® dispenser, and incubated at 37° C. in a VWR INCU-Line incubator for 60 minutes after mixing. No nucleotide triphosphate mix is added to negative control samples. Microplates with compounds to be tested in the assay are prepared from 10 mM compound stocks in 100% DMSO, equal amounts of DMSO without any compound are added to positive control and negative control samples.
# During the incubation, a mix of the detection reagents is prepared in a buffer such that the enzymatic reaction is terminated due to chelating of Mg-ions and increased ionic strength, containing 50 mM Tris-HCl (pH 7.5), 700 mM NaCl, 20 mM EDTA, and 0.01% (w/v) Tween-20. Europium-streptavidin is pre-incubated with a 200-fold molar excess of a random sequence oligonucleotide to block unspecific binding of oligo, for two hours at ambient temperature in the dark. Afterwards, the blocked Europium-streptavidin is kept on ice until use.
# At the end of the enzymatic reaction time, 5 μL detection oligo mix in the detection buffer is added, and assay plates are mixed and kept at ambient temperature for one hour, protected from light. The concentration of the Acceptor nucleotide oligo (e.g., ATTO647N-5′-[…]-3′ (SEQ ID NO: 1)) and Donor nucleotide oligo (e.g., bio-5′-AACACATCTCT(-bio)GCCAAACCCCA-bio-3′ (SEQ ID NO: 2)) in each assay well is 1 nM, and 3 nM, respectively.
# After incubation with oligo mix, 5 μL of pre-blocked Europium-streptavidin reagent is dispensed to each assay well, assay plates are again mixed and kept at ambient temperature for one hour, protected from light.
# The generated signal is measured with BMG Pherastar microtiter plate reader with a TRF light unit, using excitation at 340 nm, an integration time of 200 μs, and a delay time of 100 μs, before detection at 620 nm and 665 nm. The ratio of donor- and acceptor-fluorescence is used as a measure of the generated transcript product (i.e. enzymatic activity).
# Sequence of POLRMT (O00411 42-1230): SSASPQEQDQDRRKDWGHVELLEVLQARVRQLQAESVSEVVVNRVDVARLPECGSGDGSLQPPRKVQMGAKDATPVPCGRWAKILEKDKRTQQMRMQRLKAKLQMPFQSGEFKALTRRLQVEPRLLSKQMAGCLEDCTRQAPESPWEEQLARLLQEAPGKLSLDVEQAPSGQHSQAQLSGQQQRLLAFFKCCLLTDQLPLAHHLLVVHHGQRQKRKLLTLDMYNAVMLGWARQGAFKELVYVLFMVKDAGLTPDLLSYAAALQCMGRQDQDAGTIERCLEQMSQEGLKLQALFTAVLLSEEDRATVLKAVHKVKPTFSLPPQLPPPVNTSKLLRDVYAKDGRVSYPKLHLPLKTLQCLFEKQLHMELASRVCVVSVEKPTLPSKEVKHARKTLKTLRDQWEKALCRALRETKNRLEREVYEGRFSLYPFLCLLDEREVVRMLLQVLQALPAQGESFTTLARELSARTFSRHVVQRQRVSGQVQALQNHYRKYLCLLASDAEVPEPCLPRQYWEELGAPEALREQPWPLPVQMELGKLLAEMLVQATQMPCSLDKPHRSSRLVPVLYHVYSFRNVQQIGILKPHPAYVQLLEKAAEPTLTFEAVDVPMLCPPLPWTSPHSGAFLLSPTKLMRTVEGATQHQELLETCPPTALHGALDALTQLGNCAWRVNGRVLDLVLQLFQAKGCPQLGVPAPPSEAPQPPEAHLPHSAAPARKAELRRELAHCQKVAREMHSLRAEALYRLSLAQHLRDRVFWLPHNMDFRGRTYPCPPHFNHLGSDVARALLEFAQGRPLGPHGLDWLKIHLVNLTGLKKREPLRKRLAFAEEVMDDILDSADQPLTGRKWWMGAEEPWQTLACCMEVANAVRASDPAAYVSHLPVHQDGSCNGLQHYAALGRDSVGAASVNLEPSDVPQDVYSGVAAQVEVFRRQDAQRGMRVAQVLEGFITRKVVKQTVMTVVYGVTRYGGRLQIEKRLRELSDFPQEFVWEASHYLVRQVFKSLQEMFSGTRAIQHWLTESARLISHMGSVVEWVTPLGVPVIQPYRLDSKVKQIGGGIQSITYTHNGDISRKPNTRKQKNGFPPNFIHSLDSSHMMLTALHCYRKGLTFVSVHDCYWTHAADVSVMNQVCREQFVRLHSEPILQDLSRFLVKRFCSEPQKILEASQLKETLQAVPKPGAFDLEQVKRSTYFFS
row,Compound,IC50
1,"COc1ccc2c(-c3ccccc3C(C)O)c[nH]c(=O)c2c1 (stereo not shown) [Example 11, 4-(2-(1-hydroxyethyl)phenyl)-7-methoxyisoquinolin-1(2H)-one]",62000 nM
2,"Cc1ccccc1-c1c[nH]c(=O)c2cc(O[C@H](C)C(=O)N3CC(C(=O)O)CC(F)(F)C3)ccc12 (single isomer, unassigned) [Example 2]",50 nM
3,"Cc1ccccc1-c1c[nH]c(=O)c2cc(O[C@H](C)C(=O)N3CC[C@@H](N(C)C)C3)ccc12 [Example 64, 7-(((R)-1-((R)-3-(dimethylamino)pyrrolidin-1-yl)-1-oxopropan-2-yl)oxy)-4-(0-tolyl)isoquinolin-1(2H)-one]",200 nM
4,"CCCC1(C(=O)O)CCCN(C(=O)[C@@H](C)Oc2ccc3c(-c4ccccc4C)c[nH]c(=O)c3c2)C1 (single isomer, unassigned) [Example 67]",40 nM
5,"Cc1ccccc1-c1c[nH]c(=O)c2cc(O[C@H](C)C(=O)N3CCCC(CC(=O)O)C3)ccc12 (single isomer, unassigned) [Example 12]",60 nM
6,"Cc1ccccc1-c1c[nH]c(=O)c2cc(N(C)[C@@H](C)C(=O)N3CCC[C@H](C(=O)O)C3)ccc12 (single isomer, unassigned) [Example 7]",200 nM
7,"COCCN1C2CCC1CN(C(=O)[C@@H](C)Oc1ccc3c(-c4ccccc4C)c[nH]c(=O)c3c1)C2 [Example 27, 7-(((2R)-1-(8-(2-methoxyethyl)-3,8-diazabicyclo[3.2.1]octan-3-yl)-1-oxopropan-2-yl)oxy)-4-(o-tolyl)isoquinolin-1(2H)-one]",100 nM
8,"Cc1ccccc1-c1c[nH]c(=O)c2cc(O[C@H](C)C(=O)N3CCCC(C4(C(=O)O)CC4)C3)ccc12 (stereo partly drawn) [Example 34, 1-(1-((R)-2-((1-oxo-4-(o-tolyl)-1,2-dihydroisoquinolin-7-yl)oxy)propanoyl)piperidin-3-yl)cyclopropane-1-carboxylic acid]",30 nM
9,"CC(=O)N(C)CCN(C)C(=O)[C@@H](C)Oc1ccc2c(-c3ccccc3C)c[nH]c(=O)c2c1 [Example 22, (R)-N-methyl-N-(2-(N-methylacetamido)ethyl)-2-((1-oxo-4-(o-tolyl)-1,2-dihydroisoquinolin-7-yl)oxy)propanamide]",2000 nM
10,"CC(=O)N[C@H]1CCCN(C(=O)[C@@H](C)Oc2ccc3c(-c4ccccc4C)c[nH]c(=O)c3c2)C1 [Example 28, N-((S)-1-((R)-2-((1-oxo-4-(o-tolyl)-1,2-dihydroisoquinolin-7-yl)oxy)propanoyl)piperidin-3-yl)acetamide]",100 nM
11,"Cc1ccccc1-c1c[nH]c(=O)c2cc(O[C@H](C)C(=O)N3CCCC(C(C)(C)C(=O)O)C3)ccc12 (single isomer, unassigned) [Example 43]",20 nM
12,"C[C@@H](Oc1ccc2c(-c3ccc(F)cc3Cl)c[nH]c(=O)c2c1)C(=O)N1CCC(C)(C(=O)O)CC1 [Example 14, (R)-1-(2-((4-(2-chloro-4-fluorophenyl)-1-oxo-1,2-dihydroisoquinolin-7-yl)oxy)propanoyl)-4-methylpiperidine-4-carboxylic acid]",100 nM
13,"Cc1ccccc1-c1c[nH]c(=O)c2cc(O[C@H](C)C(=O)N3CCCCC(N(C)C)C3)ccc12 (single isomer, unassigned) [Example 75]",3000 nM
14,"CCC1(C(=O)O)CCCN(C(=O)[C@@H](C)Oc2ccc3c(-c4ccccc4C)c[nH]c(=O)c3c2)C1 (single isomer, unassigned) [Example 52]",20 nM
15,"Cc1ccccc1-c1c[nH]c(=O)c2cc(O[C@@H](C)C(=O)N(C)CC(=O)O)ccc12 [Example 26, (S)-N-methyl-N-(2-((1-oxo-4-(o-tolyl)-1,2-dihydroisoquinolin-7-yl)oxy)propanoyl)glycine]",43000 nM
16,"CC(=O)N(C)CCNC(=O)[C@@H](C)Oc1ccc2c(-c3ccccc3C)c[nH]c(=O)c2c1 [Example 17, (R)-N-(2-(N-methylacetamido)ethyl)-2-((1-oxo-4-(o-tolyl)-1,2-dihydroisoquinolin-7-yl)oxy)propanamide]",2000 nM

# The remaining lines, values ahead:
row,IC50,Compound
1,100 nM,"Cc1ccccc1-c1c[nH]c(=O)c2cc(O[C@H](C)C(=O)N3CCN(C(N)=O)CC3)ccc12 [Example 16, (R)-4-(2-((1-oxo-4-(o-tolyl)-1,2-dihydroisoquinolin-7-yl)oxy)propanoyl)piperazine-1-carboxamide]"
2,100 nM,"Cc1ccccc1-c1c[nH]c(=O)c2cc(O[C@H](C)C(=O)N(C)CC(N)=O)ccc12 [Example 61, (R)-N-(2-amino-2-oxoethyl)-N-methyl-2-((1-oxo-4-(o-tolyl)-1,2-dihydroisoquinolin-7-yl)oxy)propanamide]"
3,200 nM,"Cc1ccccc1-c1c[nH]c(=O)c2cc(O[C@H](C)C(=O)N[C@H](C)C(N)=O)ccc12 [Example 21, (R)-N-((R)-1-amino-1-oxopropan-2-yl)-2-((1-oxo-4-(o-tolyl)-1,2-dihydroisoquinolin-7-yl)oxy)propanamide]"
4,30 nM,"Cc1cc(F)ccc1-c1c[nH]c(=O)c2cc(O[C@H](C)C(=O)N3CCN(C(N)=O)CC3)ccc12 [Example 56, (R)-4-(2-((4-(4-fluoro-2-methylphenyl)-1-oxo-1,2-dihydroisoquinolin-7-yl)oxy)propanoyl)piperazine-1-carboxamide]"
5,200 nM,"CNC1CCN(C(=O)[C@@H](C)Oc2ccc3c(-c4ccccc4C)c[nH]c(=O)c3c2)CC1 [Example 68, (R)-7-((1-(4-(methylamino)piperidin-1-yl)-1-oxopropan-2-yl)oxy)-4-(o-tolyl)isoquinolin-1(2H)-one]"
6,30 nM,"Cc1ccccc1-c1c[nH]c(=O)c2cc(O[C@H](C)C(=O)N3CCCC(C(C)(C)C(N)=O)C3)ccc12 (single isomer, unassigned) [Example 45]"
7,100 nM,"Cc1ccccc1-c1c[nH]c(=O)c2cc(O[C@H](C)C(=O)N3CC[C@H](N(C)C)C3)ccc12 [Example 65, 7-(((R)-1-((S)-3-(dimethylamino)pyrrolidin-1-yl)-1-oxopropan-2-yl)oxy)-4-(o-tolyl)isoquinolin-1(2H)-one]"
8,1000 nM,"CCNC1CCN(C(=O)[C@@H](C)Oc2ccc3c(-c4ccccc4C)c[nH]c(=O)c3c2)CC1 [Example 77, (R)-7-((1-(4-(ethylamino)piperidin-1-yl)-1-oxopropan-2-yl)oxy)-4-(o-tolyl)isoquinolin-1(2H)-one]"
9,40 nM,"Cc1ccccc1-c1c[nH]c(=O)c2cc(O[C@H](C)C(=O)N3CCC[C@@H](CC(N)=O)C3)ccc12 [Example 39, 2-((S)-1-((R)-2-((1-oxo-4-(o-tolyl)-1,2-dihydroisoquinolin-7-yl)oxy)propanoyl)piperidin-3-yl)acetamide]"
10,40 nM,"Cc1ccccc1-c1c[nH]c(=O)c2cc(O[C@H](C)C(=O)N3CCCC(C(C)(C)C(N)=O)C3)ccc12 (single isomer, unassigned) [Example 46]"
11,100 nM,"Cc1cccc(CO)c1-c1c[nH]c(=O)c2cc(OCC(F)F)ccc12 [Example 72, 7-(2,2-difluoroethoxy)-4-(2-(hydroxymethyl)-6-methylphenyl)isoquinolin-1(2H)-one]"
12,20 nM,"Cc1ccccc1-c1c[nH]c(=O)c2cc(O[C@H](C)C(=O)N3CCCC(C4(C(N)=O)CC4)C3)ccc12 (single isomer, unassigned) [Example 40]"
